According to patent US7344884B2, “Peptides promoting cell adherence, growth and secretion” (Becton, Dickinson and Company, priority 2001, dated 2008):
“Also recorded” adds a separate entry of the source. Marks after values point to notes of the source that are not given here.

Key:
[1] = tested on: PDGF secretion by CHO cells producing rPDGF (CRL 9359/CRL9360); assay: Sandwich ELISA for PDGF in supernatant of CHO cells cultured with test peptide; format: cell-based, Chinese Hamster; settings: for effect on PDGF expression/accumulation in CHO cells (result in words): library screening
Method: To identify peptides in a particular library which positively affected cell expression and secretion, each test peptide was added to a well containing a monolayer of chinese hamster ovary cells. The selected cells were anchorage-dependent CHO cells known to secrete platelet derived growth factor, which were initially grown on the tissue culture surfaces using a media with serum. After the monolayer was established, a chemically defined base media and a single test peptide were added to each well. In the present work, secretion of PDGF was assessed in the presence and absence of peptides from the library by collecting supernatant from each well and performing an ELISA specific for PDGF on the supernatant. The output was the absorbance at 492 nm. Secretion was evaluated in a basal medium rich in amino acids, the necessary vitamins, metals, carbon source and concensus CHO culture factors. PDGF levels were compared to known standards spiked into the media used for culture.
CHO cells are the most widely used animal cell lines in the field of biotechnology for the production of therapeutically important pharmaceuticals (Martin et al, REVIEW, J. of Biotechnology. Progress 1998 14, 807-833). The Chinese Hamster Ovary Cell Lines producing rPDGF (CRL 9359/CRL9360) were obtained from the American Type Culture Collection, 12301 Parklawn Drive, Rockville, Md. 20852. The depositor was Amgen Inc. of Thousand Oaks, Calif. Further details about the cell lines and expressed products can be found in U.S. Pat. No. 5,175,255.
Cells were propagated in DMEM/FI2 media with 5% serum at 37° C. between 5-7% CO2. Passages were limited to 5 prior to seeding and PDGF expression was monitored by western blot and ELISA. Cells were routinely seeded at a density of approximately 1×10^4 cells per 20 ml culture media that was placed in a 250 ml canted neck polystyrene tissue culture treated flask (Becton Dickinson). Cells were cultured to confluency and trypsinized to yield cells for seeding.
1A Media was used as a PDGF negative control (pre-culture), to hydrate the 40 ng PDGF standard (pre-culture), to hydrate test peptides (pre-culture) and to normalize all other test and control PDGF results (post-culture). The 1A media was prepared by adding the following components to a 500 ml bottle of DMEM/F12 (GIBCO cat. No. 11330-032): 2.5 ml of a 10 mM NEAA stock (GIBCO Catalog 11140-050); 10 ml of a 200 mM L-glutamine stock (GIBCO Catalog 25030-08); 1 ml of a 50 mg/ml gentamycin sulfate stock (GIBCO Catalog 15750-0601); 150 μl of a 100 μM methotrexate Stock (Sigma Catalog M8407); 0.5 ml of a 7.5 mg/ml insulin Stock (Sigma I-6634); 50 μl of a 1 mg/ml insulin-like growth factor-stock (Long R3 Factor, Sigma Catalog No. I-1271); 2.5 grams of bovine serum albumin (Sigma Catalog No. A-7906); and 0.5 ml of a 7.5 mg/ml holo-transferrin stock (Sigma T-1283).
The CHO model cell lines are adherent cultures that have never been adapted to a serum-free environment. Accordingly, media containing serum was used to seed wells. Two formats, Overlay (O) and Wash (W) were used to introduce media containing test peptides to adhered cells.
In the O-Format, compounds were gently added on top of the seeding media on the second day. In the O-Format, 9360 cells were seeded at 1,000 cells per 96 well in a 125 μl volume of 1A media with 1.5% serum. 1A media (−serum) containing 12 mM of test peptide was overlaid 2 days later for a final peptide concentration of 6 mM and 0.75% serum. Cell culture supernatant was collected from each test environment on day 10 for later PDGF assay.
In the W-Format, compounds were added on day 2 or 3 after the seeding media was removed. In the W-Format, 9359 and 9360 cells were seeded at 6,000 cells per 96 well in a 250 μl volume of DMEM/F12 with 5% serum. Three days later, the seeding media was removed and replaced with 250 μl of 1A media (−serum) containing 6 mM test peptide. Cell culture supernatant was collected on days 5 and 12 for later PDGF assay. […]

MC3T3 cells = assay: Oxygen biosensor assay of adherence and growth of MC3T3 cells on peptide-coated wells; format: cell-based, murine; settings: for impact on MC3T3 growth (result in words): peptide or control adsorbed to surface, compared with uncoated surface or controls
Method: To identify peptides in a particular library which positively affected cell growth in cell culture, the library was screened in a growth assay. The selected cells were anchorage-dependent MC3T3 cells, which were grown on tissue culture surfaces which had been pre-coated with peptides of the present invention. The screening medium used to evaluate peptides in the library was a low serum medium allowing evaluation of peptide effects with low interference from undefined materials present in the medium. In the present work, growth of MC3T3 cells was assessed in the presence and absence of the peptides in the library which were present in the form of a dried film on a tissue culture substrate. Growth was evaluated in a basal medium rich in amino acids and containing the necessary vitamins, metals and simple carbon source. After an appropriate incubation time, growth of each peptide-supplemented culture is compared to growth of the unsupplemented culture. The extent of growth was evaluated using a Becton Dickinson oxygen sensor to detect oxygen consumption by the cells. The cell number in each well containing a particular peptide was then assessed indirectly with a flurometer which measured fluorescence generated from a fluoroescent dye using band-pass filters of 465 nm for excitation and 590 nm for emission.
Briefly, the oxygen biosensor is based upon the fluoroscence of ruthenium dye which is quenched in the presence of oxygen. The dye is immobilized within an inert but highly permeable silicone matrix located at the bottom of microtiter wells. […] (Wodnicka, M., Guarino, R. D., Hemperly, J. J. Temmins, M. R., Stitt, D. and Pitner, J. B. (2000) J. of Biomolecular Screening 5:141-152)
MC3T3-E1 is a clonal line of murine calvaria-derived osteoblast (establishement of a clonal osteogenic Cell Line from Newborn Mouse Calvaria in Jpn J. Oral Biol 23, 899 (1981)).
MC3T3 cells were maintained in αMEM (GIBCO Catalog No: 12561) supplemented with 2% fetal calf serum (FCS, inactivated) and 100 units or μg/ml of penicillin/streptomycin for one month prior to use. Cells were routinely seeded at a density of approximately 1×10^4 cells per 20 ml culture media which was placed in a 250 ml canted neck polystyrene tissue culture treated flask (Becton Dickinson). Cells were cultured until approximately 2×10^6 cells were obtainable from each flask, which were resuspended in 5 ml of αMEM with 2% FCS for a final cell concentration of about 5×10^4 cells per 150 μl for peptide screening.
For determining the biological effects of library peptides and appropriate controls on MC3T3 cells, cells (5×10^4/150 μl) were grown in an 96 well oxygen sensor plate treated as described below:
Peptides for screening were obtained from either a MDL-400 library or an MDL-100 library. Fifty microliters of peptides at a 1 mM stock concentration in phosphate buffered saline were placed in wells of a 96 well oxygen sensor plate and dried in a reverse flow air hood overnight […].
Vitrogen-collagen-I was obtained from Cohesion (Palo Alto, Calif., Catalog No. FXP-019) and fibronectin was obtained from Sigma (Catalog No. F-0895). All other extracellular matrix (ECM) compounds were obtained from Becton Dickinson Labware, (Bedford, Mass.). Polylysine was obtained from Becton Dickinson Labware and RGDSP-rhodamine was from AnaSpec Inc. (San Jose, Calif.). Extracellular matrix components (ECM) or known peptides were used at the following stock concentrations:
Twenty-five microliters of stock concentrations of controls and 25 μl of phosphate buffered saline were placed in wells of a 96 well oxygen sensor plate and dried overnight as described above.
Cells grown on 96 well oxygen sensor plates treated as described above were monitored for growth using a Becton Dickinson oxygen biosensor. Growth was monitored at the following time points: 1 hours, 24 hours, 32 hours, 48 hours and 86 hours. Media was changed every three days. […]

[2] = 6 mM peptide in 1A media, day 12 or sooner, 1A media post-culture value subtracted

Row | Substance | Normalized Abs at 492 nm (relative PDGF level), MDL-400 Library [1, 2] | other results
1 | 16 (FKLVY; Synthetic peptide selected for biological activity) [Peptide 16] | 1.38 | –
2 | 19 (FKKKQ; Synthetic peptide selected for biological activity) [Peptide 19] | 0.79 | –
3 | 22 (FKKKK; Synthetic peptide selected for biological activity) [Peptide 22] | 0.59 | –
4 | 27 (KKPQY; Synthetic peptide selected for biological activity) [Peptide 27] | 0.55 | –
5 | 30 (KNQTY; Synthetic peptide selected for biological activity) [Peptide 30] | 0.50 | –
6 | 31 (FKKKV; Synthetic peptide selected for biological activity) [Peptide 31] | 0.49 | –
7 | 34 (HKNQT; Synthetic peptide selected for biological activity) [Peptide 34] | 0.42 | –
8 | 37 (EKKQT; Synthetic peptide selected for biological activity) [Peptide 37] | 0.38 | –
9 | 38 (EKKKK; Synthetic peptide selected for biological activity) [Peptide 38] | 0.37 | –
10 | 43 (DGKKT; Synthetic peptide selected for biological activity) [Peptide 43] | 0.32 | –
11 | 44 (KKPTT; Synthetic peptide selected for biological activity) [Peptide 44] | 0.31 | –
12 | 46 (FKKMY; Synthetic peptide selected for biological activity) [Peptide 46] | 0.28 | –
13 | 50 (DFFHK; Synthetic peptide selected for biological activity) [Peptide 50] | 0.25 | –
14 | 51 (AKKKK; Synthetic peptide selected for biological activity) [Peptide 51] | 0.25 | –
15 | 53 (AHKKK; Synthetic peptide selected for biological activity) [Peptide 53] | 0.22 | –
16 | 56 (AKKKT; Synthetic peptide selected for biological activity) [Peptide 56] | 0.20 | –
17 | 58 (HNPPY; Synthetic peptide selected for biological activity) [Peptide 58] | 0.58 | –
18 | 60 (AADEG; Synthetic peptide selected for biological activity) [Peptide 60] | 0.45 | –
19 | 63 (HHPST; Synthetic peptide selected for biological activity) [Peptide 63] | 0.33 | –
20 | 65 (ADELN; Synthetic peptide selected for biological activity) [Peptide 65] | 0.23 | –
21 | AFFFQ (Synthetic peptide selected for biological activity) [SEQ ID NO:12] | 0.43 | –
22 | EEEMY (Synthetic peptide selected for biological activity) [SEQ ID NO:13] | – | Normalized Abs at 492 nm (relative PDGF level), Follow-Up Library [1, 2]: 1.37
23 | FKFIG (Synthetic peptide selected for biological activity) [SEQ ID NO:5] | – | effect on PDGF expression/accumulation in CHO cells (result in words) [1]: positive; Abs at 590 nm (relative oxygen consumption), MDL-400 Library (MC3T3 cells; 86 hour time point, single peptide, 50 µl of 1 mM stock dried in well, value normalized to the well's initial reading): 2.27*; impact on MC3T3 growth (result in words) (MC3T3 cells): positive; also recorded: significant difference in growth; impact on MC3T3 growth (result in words) (MC3T3 cells; listed as FKFIG): positive
24 | KFIFG (Synthetic peptide selected for biological activity) [SEQ ID NO:45] | – | effect on PDGF expression/accumulation in CHO cells (result in words) [1]: positive
